Laboratory results published in paper PMC1976805, “Preclinical pharmacokinetics of benznidazole” (British Journal of Cancer, 1984).
“And” between values parts separate entries of the source, which are not always exact repeats. Identical values can stand only once. Like-named read-outs stand apart in the source and are kept apart here.

Tests used:
[1] = Whole plasma pharmacokinetics in dogs (HPLC); type: in vivo, dog
Text: (§1) Br. J. Cancer (1984), 50, 291-303 Preclinical pharmacokinetics of benznidazole P. Workman', R.A.S. White2, M.I. Walton', L.N. Owen2* & P.R. Twentyman' 1MRC Clinical Oncology and Radiotherapeutics Unit, MRC Centre, Hills Road, Cambridge CB2 2QH, and 2Department of Clinical Veterinary Medicine, University of Cambridge, Madingley Road, Cambridge CB3 OES, UK. […] We have investigated the detailed pharmacokinetics of benznidazole in mice, dogs and sheep to provide a data base for the estimation of doses required for chemosensitization in man. Pharmacokinetic behaviour was linear except at high doses in mice. Absorption was fairly rapid and bioavailability was complete following both i.p. administration in mice and oral administration in dogs. Elimination t4 values were longer than for MISO, being 90 min in mice, 4-5 h in sheep and 9-11 h in dogs. At doses giving linear kinetics, peak whole plasma concentrations per administered mgkg-1 were 0.75 jigml-1 for the i.p. route in mice and 1.8jugmlP' for the oral route in dogs. Though between 39 and 59% of plasma benznidazole was bound to protein, tissue penetration was generally good. Tissue/whole plasma ratios ranged from 59-99% for transplantable mouse tumours and from 14-70% for spontaneous dog neoplasms. Nervous tissue penetration was similar to that in tumours: brain/whole plasma ratios averaged between 61 and 76% in mice and 42% in dogs, while peripheral nerve/whole plasma ratios in dogs averaged 74%. Mean liver/whole plasma ratios were 42% and 71% in BALB/c and C3H/He mouse strains respectively. Only -5% of the administered dose was excreted unchanged in the urine, indicating the likelihood of extensive metabolism. […] Enhancement of CCNU response is likely to require circulating benznidazole concentrations of 10-30 pgml-1 and we predict that these will be obtained with oral doses of 6-20 mgkg- 1 in man. […] This enhancement, or chemosensitization, is usually greater than that seen in dose-limiting normal tissues, resulting in an improved therapeutic index. Because of the relatively high doses of MISO usually required for chemosensitization in mice (see above refs), and also because of its neurotoxicity in man (Dische et al., 1977), we have been interested in finding an improved chemosensitizer. […] The lipophilic ana- logue benznidazole (N-benzyl-(2-nitroimidazolyl) acetamide, Ro 07-1051; Radanil; Roche), the structure of which is shown in Figure 1, was selected for detailed study because of its ability to *Present address: Animal Health Trust, Small Animals Centre, Lanwades Park, Kennett, Newmarket, Suffolk CB8 7PN, UK. Correspondence: P. Workman. […] These findings have been confirmed independently by Siemann et al. (1983). Although benznidazole is used quite widely in South America to treat patients with the trypanosomal infection Chagas' disease or with mucotaneous Leishmaniasis (Barclay et al., 1978; Cerisola et al., 1978; Coura et al., 1978; Fava et al., 1978), apart from our preliminary studies (White et al., 1982) the only published data on its pharmaco- kinetics are for human plasma concentrations measured by polarography (Raaflub & Ziegler, 1979; Raaflub, 1980). Here we describe the pharmacokinetics of benznidazole in the mouse, sheep and dog, as determined by high-performance liquid chromatography (HPLC). […] The Macmillan Press Ltd., 1984 292 P. WORKMAN et al. particularly on plasma and tumour concentrations, have been used as a basis for the estimation of the benznidazole doses required in a Phase I trial of benznidazole plus CCNU, at present ongoing in our Unit. Materials and methods Animals and tumours Adult inbred male BALB/c mice were obtained from OLAC (Southern) Ltd. (Bicester, UK) and adult inbred C3H/He mice of both sexes from OLAC and our own breeding colony. Mice were housed in plastic cages on sawdust bedding made from soft white woods, and allowed laboratory chow and water ad lib. They were used at 20-35 g body wt.

[2] = Penetration into EMT6 and KHT mouse tumours; type: in vivo; settings: for steady-state concentration in tumour: multiple dose schedule
Text: as §1

[3] = EMT6 flank tumour, BALB/c, 45 min after 650 mg kg-1 i.p.

- peak whole plasma concentration ([1]; dog D, collie crossbred 20 kg, 5 mg kg-1 i.v.): 12.4 µg/mL
- peak whole plasma concentration ([1]; dog D, collie crossbred 20 kg, 12.5 mg kg-1 oral (slow, prolonged absorption)): 13.1 µg/mL
- peak whole plasma concentration ([1]; dog D, collie crossbred 20 kg, 25 mg kg-1 oral): 46.5 µg/mL
- peak whole plasma concentration ([1]; dog E, beagle 9 kg, 50 mg kg-1 oral): 59.8 µg/mL
- peak time ([1]; dog F, 50 mg kg-1 oral): 3 h
- peak whole plasma concentration ([1]; dog F, beagle 10 kg, 50 mg kg-1 oral): 54.8 µg/mL
- Tmax ([1]; dog, plasma, po, dogs, discussion summary, read-out: time of peak concentrations after oral dosing): 3 to 5 h
- overall oral bioavailability (dose-normalised AUC0-∞ oral vs i.v.) ([1]; dogs C and D): about 130%
- peak concentrations readily achieved ([1]; dogs, oral doses of 25-50 mg kg-1): 50 µg/mL
- average peak whole plasma concentration ([1]; large crossbred dogs, 12.5 mg kg-1 oral): 20 µg/mL
- average peak whole plasma concentration ([1]; large crossbred dogs, 25 mg kg-1 oral): 47 µg/mL
- mean peak whole plasma concentration per administered mg kg-1 ([1]; large crossbred dogs, oral route (s.e., n=6)): 1.8 µg ml-1 and 1.77 + 0.17 µg ml-1
- concentration in tumour homogenate (Figure 2 chromatogram) [2, 3]: 13500 ng/mL
- tumour concentration (Figure 2 chromatogram) [2, 3]: 54 µg/g
- tumour/whole plasma ratio (s.e., n=5) ([2]; EMT6 flank, experiment b, 650 mg kg-1 i.p., 45 min): 58+8%
- tumour/whole plasma ratio (s.e., n=5) ([2]; EMT6 flank, experiment b, 650 mg kg-1 i.p., 75 min): 70 + 5%
- tumour/whole plasma ratio (s.e., n=5) ([2]; EMT6 flank, experiment b, 650 mg kg-1 i.p., 105 min): 97 + 4%
- tumour/whole plasma ratio (s.e., n=5) ([2]; EMT6 flank, experiment b, 650 mg kg-1 i.p., 135 min): 88 + 9%
- tumour/whole plasma ratio (% ± s.e.) ([2]; EMT6 i.d. flank, BALB/c, Exp 2 (b): 650 mg kg-1 i.p., 45-135 min, n=20): 79 + 5%
- peak tumour level (s.e., n=4) ([2]; EMT6 i.d. flank, first experiment, 650 mg kg-1 i.p. in arachis oil): 55+11 µg g-1
- tumour/whole plasma ratio (% ± s.e.) ([2]; EMT6 i.m. leg, BALB/c, Exp 1 (c): 650 mg kg-1 i.p., 45-135 min, n=20): 75 + 5%
- tumour/whole plasma ratio (% ± s.e.) ([2]; EMT6 i.m. leg, BALB/c, Exp 2 (d): 650 mg kg-1 i.p., 45-135 min, n=20): 74+6%
- peak tumour level (s.e., n=5) ([2]; EMT6 i.m. leg, first experiment, 650 mg kg-1 i.p.): 130+7 µg g-1
- peak tumour level (s.e., n=5) ([2]; EMT6 i.m. leg, second experiment, 650 mg kg-1 i.p.): 84+14 µg g-1
- tumour/whole plasma ratio (% ± s.e.) ([2]; KHT i.m. leg, C3H/He, Exp 1 (e): 60 mg kg-1 i.p. priming + 15 hourly doses of 15 mg kg-1, 1-16 h, n=25): 99+3%
- tumour/whole plasma ratio (% ± s.e.) ([2]; KHT i.m. leg, C3H/He, Exp 2 (f): dosing as e omitting the dose at 1 h, 2-16 h, n=13): 90+ 3%
- tumour/whole plasma ratio (s.e., n=5) ([2]; KHT tumour, 1 h after single i.p. dose of 78 mg kg-1): 88+5%
- tumour/whole plasma ratio (s.e., n=5) ([2]; KHT tumour, 1 h after single i.p. dose of 260 mg kg-1): 88+2%
- steady-state concentration in tumour ([2]; KHT tumour, first experiment): 26 µg/g
- steady-state concentration in tumour ([2]; KHT tumour, second experiment): 32 µg/g
- range of mean plasma concentrations ([2]; Table II experiment a): 49 to 99 µg/mL
- range of mean plasma concentrations ([2]; Table II experiment b): 77 to 121 µg/mL
- range of mean plasma concentrations ([2]; Table II experiment c): 100 to 130 µg/mL
- range of mean plasma concentrations ([2]; Table II experiment d): 74 to 133 µg/mL
- range of mean plasma concentrations ([2]; Table II experiment e (multiple dose)): 25 to 47 µg/mL
- range of mean plasma concentrations ([2]; Table II experiment f (multiple dose)): 12 to 29 µg/mL
- Kp ([2]; male, BALB/c, mouse, EMT6 flank tumour / whole plasma, EMT6 flank tumours, read-out: overall tissue/whole plasma ratio): 0.69
- Kp ([2]; male, mouse, tumour (EMT6, intradermal, intraperitoneal), EMT6 i.d. flank, BALB/c, Exp 1 (a): 650 mg kg-1 i.p. single dose (arachis oil), 45-135 min, n=16, read-out: tumour/whole plasma ratio (% ± s.e.)): 0.59
- peak tumour concentration that would be produced ([2]; mice, 13 mg kg-1 i.p.): ~9 µg/g
- tumour concentration ([2]; mice, 78 mg kg-1 i.p., discussion summary): 26 µg/g
- Kp ([2]; tumour (KHT and EMT6), transplantable mouse tumours (KHT and EMT6), read-out: tissue/whole plasma ratios, range): 0.59 to 0.99
- Kp ([2]; tumour / whole plasma, transplantable mouse tumours, read-out: steady-state tumour/whole plasma ratio (about)): ~0.9
SMILES: O=C(Cn1ccnc1[N+](=O)[O-])NCc1ccccc1 [benznidazole, N-benzyl-(2-nitroimidazolyl) acetamide]
